Residues, ends and D or L forms follow the SMILES beside them. *: point of attachment. For = O=C*

For the assay, the system named is FPR-GFP with Gαβγ on DCNi beads (LR^FG ternary complex). The assay can be described thus: Standard LRG assembly assay with FPR-GFP (R^F) on G protein beads, flow cytometry. The format is biochemical, human. The settings on record: for EC50: standard assembly with 30 nM R^F, three experiments, read-out: EC50 for LRG formation. On the procedure:
Standard LRG Assembly Assay. […] Each mixture was mixed by pipetting to ensure a uniform starting suspension of the beads in 96 V-well plates (Costar), and then mixed at low speed on a vortex mixer at 7° for two hours. The 10 μl assays were individually brought to 200 μl with 0.1% dodecyl maltoside in buffer A in 12×75 mm tubes for flow cytometric measurement of fluorescence of the beads. LRG assembly was defined as the difference between fluorescence without GTPγS and that with GTPγS. All determinations were done in duplicate.
In general terms: A flow cytometer gives signals particle by particle.

A word on the EC50: it is the midpoint of the concentration-response curve. For the molecule `CSCC[C@H](NC=O)C(=O)N[C@@H](CC(C)C)C(=O)N[C@@H](Cc1ccccc1)C(=O)N[C@@H](Cc1ccccc1)C(=O)O` [fMLFF] (For-MLFF-OH; C-terminus assumed), the EC50 amounted to 27 nM. As to `CSCC[C@H](NC=O)C(=O)N[C@@H](CC(C)C)C(=O)O` [fML] (For-Met-Leu-OH; C-terminus assumed), the EC50 is 5300 nM. In addition, under “near the limit of solubility of fML”, the “calculated maximal assembly, of the LRG assembly of the longer peptides” value is on record as 78+/−3%.

The values above are taken from patent US7189519B2, “Bead-based detection of ligand-GPCR-G protein complexes” (STC.UNM, priority 1998, dated 2007).
